This is an account of results in ChEMBL document CHEMBL4673240, “Euphnerins A and B, Diterpenoids with a 5/6/6 Rearranged Spirocyclic Carbon Skeleton from the Stems of Euphorbia neriifolia” (J Nat Prod, 2020).

Where only a bound is given, the exact number is not on record here.

The assay in a line: Inhibition of LPS-induced NO production in mouse BV-2 cells. It is filed as functional, cell-based.
One may read the IC50 as the point on the concentration scale where inhibition reaches its midpoint. `C=C[C@@]1(C)CC[C@]2(C)C(=O)[C@@]3(CC[C@H]2C1)[C@H](O)C[C@@H](O)C3(C)C` came in with an IC50 of 22.4 µM. As for `C=C[C@@]1(C)CC[C@]2(C)C(=O)[C@@]3(CC[C@H]2C1)[C@H](O)CCC3(C)C`, the figure is more than 30 µM; as for `CSC(=N)N`, 2 µM.
